The results in this text go back to patent US20020103228A1, “Composition and method for use of pyridinium derivatives in cosmetic and therapeutic applications” (TORRENT PHARMACEUTICALS LTD., priority 1999, published 2002).

One experiment addresses T1, AGE-BSA (Bos taurus, UniProt P02769).
T1 construct: Bovine serum albumin (fraction V) (BSA); from tissue; host or cells: bovine serum (fraction V); glycated in house with 1.6 M glucose at 37 °C for 16 weeks
The experiment is described as follows: In-vitro AGE breaking activity by ELISA. The conditions noted are these: 37° C., 24 hours. In kind it is biochemical, Bovine. As for the experimental part: AGE breaking activity has been confirmed by the screening procedure as mentioned below:
Methods of experiment: Elisa (Enzyme Linked Immunosorbent Assay)
160 mg/ml of protein, bovine serum albumin, BSA and 1.6M glucose sugar were dissolved in phosphate buffered saline, PBS. Sodium azide was added at 0.02% concentration as a preservative. The solution was filtered asceptically through a […] filter and kept for aging at 37° C. for 16 weeks. After 16 weeks the solution was dialyzed against PBS, aliquoted and stored at −20° C.
To determine the AGE breaking activity, 10 μg/ml of the 16 weeks AGE-BSA was incubated with different concentrations of the test compounds at 37° C. for 24 hours and AGE breaking activity of the test compounds by ELISA was determined.
ELISA was performed as follows
1. Different concentrations of 16 weeks AGE-BSA were coated on a microtiter plate as standard. Each concentration is coated in triplicates.
2. The test samples were coated on microtiter plate at a concentration of 5 ng to 20 ng per well in triplicates
3. The plate was incubated at 37° C. for one hour.
4. After incubation the plate was washed with PBST (PBS with 0.05% Tween 20).
5. Blocking with 5% skimmed milk in PBS at 37° C. for one hour was done.
6. The plate was washed with PBST.
7. Primary antibody against AGE-BSA was added and the plate is incubated at 37° C. for one hour.
8. The plate was washed with PBST
9. Secondary antibody anti rabbit HRPO (Horse-Radish Per Oxidase) conjugate was added and the plate is incubated at 37° C. for one hour.
10. The plate was washed with PBST.
11. Colour development with OPD (orthophenylenediamine dihydrochloride) and hydrogen peroxide was done.
12. OD (optical density) at (450 nm reading-620 nm reading) was measured after incubation at 37° C. for 15 minutes with Microplate ELISA Reader
The breaker activity of the compounds were determined by the following formula: [formula]
OD450-620Control=Absorbance of 20 ng AGE-BSA after incubation at 37° C. for 24 hours without test compound
OD450-620Test=Absorbance of 20 ng AGE-BSA after incubation at 37° C. for 24 hours with required concentration of test compound
Using specific examples, the % AGE breaking activity was calculated and recorded in Table 2.
For orientation: In an ELISA, binding on a coated surface is turned into a signal by an enzyme label.

Experiment [1] is described as follows: Free radical scavenging activity on ABTS radical cation. In kind it is biochemical. As for the experimental part: This method measures the relative ability of free radical scavenging substances to scavenge the ABTS^.+ i.e. 2,2-Azino-bis-(3-ethyl benzo thiazoline-6-sulfonate) radical cation as compared to a standard amount of standard or free radical scavengers antioxidants. Incubation of ABTS with Peroxidase (metmyoglobin) and hydrogen peroxide results in the production of radical cation ABTS^.+. This species is blue-green in colour and can be detected at 730 nm. Antioxidants or free radical scavengers in the added sample that causes suppression of the color to a degree that is proportional to their concentration.
Preparation of Buffer Solutions
A. Phosphate Citrate Buffer (pH 5.0). 48.5 ml of 0.1M citric acid with sufficient 0.2M disodium hydrogen phosphate to produce 100 ml.
B. Phosphate Buffer Saline (PBS): Dissolve 40.0 g of NaCl, 1.0 g of KCl, 1.0 g of KH2PO4 and 3.05 g of Na2HPO4 in 1 liter milli-Q water. Dilute 200 ml of above solution to 1 liter with milli-Q water (pH 7.4-7.6).
C. 3 μM stock solution of Peroxidase was prepared in phosphate buffer saline pH 7.4(PBS).
D. 1.08 mM stock solution of Hydrogen peroxide was prepared in phosphate buffer saline pH 7.4 (PBS).
Preparation of ABTS Stock Solution
1 tablet (10 mg) was dissolved in phosphate citrate buffer (pH 5.0).
Preparation of ABTS Working Solution
5.0 ml of ABTS stock solution was diluted with PBS to 20 ml.
Preparation of Horse Radish Peroxidase Stock Solution
320 μg of the enzyme was dissolved in 2.5 ml of PBS.
Preparation of Hydrogen Peroxide (1.08 mM) Solution
12 μl of Hydrogen Peroxide (30% w/v) was diluted to 100 ml with PBS. […]
Preparation of ABTS Radical Stock Solution
To 18 ml of ABTS stock solution, 100 μl of Horseradish Peroxidase stock solution was added.
As soon as 1.5 ml of hydrogen peroxide solution was added to the above solution, blue-green colour of the ABTS radicals appeared. This solution was incubated at 30° C. for 30 min.
Preparation of Control Solution
980 μl of ABTS radical stock solution was added to an eppendorf tube. To it was added 100 μl of various PBS solution.
Preparation of test Solution
980 μl of ABTS radical stock solutions were added to different eppendorf tubes. To it were added 100 μl of various concentrations of drug solution.
Measurement of Absorbance (O.D)
The absorbance of control and test samples was recorded immediately at 730 nm taking PBS as blank.
Calculation: The percent antioxidant activity was calculated according to the formula. % Antioxidant activity=[O.D of test sample/O.D of control*100]−100.

T1 sequence (P02769 25-607): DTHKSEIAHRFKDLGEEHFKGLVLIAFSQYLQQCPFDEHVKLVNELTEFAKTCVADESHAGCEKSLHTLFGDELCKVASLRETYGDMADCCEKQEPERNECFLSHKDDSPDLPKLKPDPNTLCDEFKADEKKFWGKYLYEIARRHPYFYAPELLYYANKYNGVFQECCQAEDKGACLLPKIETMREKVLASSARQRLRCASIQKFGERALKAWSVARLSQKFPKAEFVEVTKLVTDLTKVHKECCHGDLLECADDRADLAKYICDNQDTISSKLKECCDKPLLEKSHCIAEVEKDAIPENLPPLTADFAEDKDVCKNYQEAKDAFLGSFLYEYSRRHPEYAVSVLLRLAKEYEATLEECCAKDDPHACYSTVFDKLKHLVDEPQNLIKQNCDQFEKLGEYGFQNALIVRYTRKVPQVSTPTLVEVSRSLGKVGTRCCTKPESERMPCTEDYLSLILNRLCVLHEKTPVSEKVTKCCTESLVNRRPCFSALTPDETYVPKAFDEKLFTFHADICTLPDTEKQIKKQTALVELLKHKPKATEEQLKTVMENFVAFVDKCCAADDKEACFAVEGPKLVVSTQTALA

As to `O=C(C[n+]1cccc(C(=O)NNc2ccccc2)c1)Nc1ccccc1.[Cl-]` [Compound 65, 1-(2-phenylamino-2-oxoethyl)-3-(phenyl hydrazinocarbonyl)pyridinium chloride], the “% Breakage” value on AGE-BSA (2.5 mM test compound) is given as 68.35%. Also, the “Relative Free Radical Scavenging Activity (%) on ABTS” value is 27.67% in experiment [1] (11.5 μM), 59.20% in experiment [1] (23.0 μM), 94.14% in experiment [1] (46.0 μM) and 100.00% in experiment [1] (92.5 μM).

As to `O=C(NNC(=O)c1ccc[n+](CC(=O)c2ccco2)c1)c1ccc[n+](CC(=O)c2ccco2)c1.[Br-].[Br-]` [Compound 32, N,N′-bis[3-carbonyl-1-(2-furan-2′-yl-2-oxoethyl)pyridinium]hydrazine dibromide], at AGE-BSA (10 mM test compound), the “% Breakage” value is on record as 14%. On the same count and under the same terms, to `CC(C)NC(=O)C[n+]1cccc(C(=O)NNS(C)(=O)=O)c1.[Cl-]` [Compound 43, 1-(2-isopropylamino-2-oxoethyl)-3-(2-methylsulfonylhydrazinocarbonyl)-pyridinium chloride] belongs 10.85%. Same read-out and setting: in the case of `CCCCNC(=O)c1ccc[n+](CC(=O)Nc2ccccc2)c1.[Cl-]` [Compound 94, 1-(2-Phenylamino-2-oxoethyl)-3-(n-butylaminocarbonyl)pyridinium chloride] it was 27%.

With `Cc1ccc(C(=O)NNS(C)(=O)=O)c[n+]1CC(=O)c1cccs1.[Br-]` [Compound 57, 1-(2-thien-2′-yl-2-oxoethyl)-3-(methanesulfonyl hydrazinocarbonyl)-6-methyl pyridinium bromide], on AGE-BSA (1 mM test compound), the “% Breakage” value was found to be 77.69%.

Take `O=C(C[n+]1cccc(C(=O)NNC(=O)c2ccc[n+](CC(=O)c3ccccc3)c2)c1)c1ccccc1.[Br-].[Br-]` [Compound 1, N,N′-bis[3-carbonyl-1-(2-phenyl-2-oxoethyl)-pyridinium]hydrazine dibromide]: the “% Breakage” value at AGE-BSA (5 mM test compound) was found to be 13%. For the molecule `COCCNC(=O)c1ccc[n+](CC(=O)NC2CC2)c1.[Cl-]` [Compound 40, 1-(2-cyclopropylamino-2-oxoethyl)-3-(2-methoxyethylaminocarbonyl)-pyridinium chloride], at AGE-BSA (10 mM test compound), the “% Breakage” value is given as 12.38%.

Turning to `Cc1ccc(C(=O)C[n+]2cccc(C(=O)NNC(=O)c3ccc[n+](CC(=O)c4ccc(C)s4)c3)c2)s1.[Cl-].[Cl-]` [Compound 58, N,N′-bis[3-carbonyl-1-(2-(5-methylthien-2-yl)-2-oxoethyl)pyridinium]hydrazine dichloride], on AGE-BSA (10 mM test compound), the “% Breakage” value is on record as 81.95%. Still for that read-out and setting: to `CCOC(=O)C[n+]1cccc(C(=O)NCCO)c1.[Br-]` [Compound 87, 1-(2-Ethoxy-2-oxoethyl)-3-((2-hydroxyethyl)aminocarbonyl)pyridinium bromide] belongs 43%.

As for `CCOC(=O)C1CCCN1C(=O)C[n+]1cccc(C(=O)NNS(C)(=O)=O)c1.[Cl-]` (stereo not drawn) [Compound 52, 1-(2-(2-ethoxycarbonylpyrrolidin-1-yl)-2-oxoethyl)-3-(methanesulfonyl hydrazinocarbonyl)pyridinium chloride], the “% Breakage” value at AGE-BSA (10 mM test compound) is on record as 25.34%. The same measure, in the same setting: to `O=C(NNC(=O)c1cccnc1Cl)c1ccc[n+](CC(=O)c2cccs2)c1.[Cl-]` [Compound 42, 1-(2-thien-2′yl-2-oxoethyl)-3-(2-(2-chloro-3-pyridoyl)hydrazinocarbonyl)-pyridinium chloride] belongs 12.51%. For the molecule `CS(=O)(=O)NNC(=O)c1cc(Br)c[n+](CC(=O)c2cccs2)c1.[Br-]` [Compound 53, 1-(2-thien-2′-yl-2-oxoethyl)-3-(methanesulfonyl hydrazinocarbonyl)-5-bromo pyridinium bromide], the “% Breakage” value at AGE-BSA (2.5 mM test compound) came out at 29.36%. Same read-out and setting: to `Cc1ccc(C(=O)NNC(=O)c2ccc[n+](CC(=O)c3cccs3)c2)c[n+]1CC(=O)c1cccs1.[Cl-].[Cl-]` [Compound 49, 1-[1-(2-thien-2′yl-2-oxoethyl)-6-methyl-3-carbonylpyridinium]-2-[1-(2-Thien-2′-yl-2-oxoethyl)-3-carbonylpyridinium]hydrazine dichloride] belongs 85.67%. Turning to `CCOC(=O)C1CCCN1C(=O)C[n+]1cccc(C(=O)NNC(=O)c2ccc[n+](CC(=O)N3CCCC3C(=O)OCC)c2)c1.[Cl-].[Cl-]` (stereo not drawn) [Compound 59, N,N′-bis[3-carbonyl-1-(2-(2-ethoxycarbonylpyrrolidin-1-yl)-2-oxoethyl)pyridinium]hydrazine dichloride], the “% Breakage” value on AGE-BSA (10 mM test compound) was determined as 20.31%.

`O=C(C[n+]1ccsc1)c1ccccc1.[Br-]` [PTB, reference compound]: the “% Breakage” value is given as 27% on AGE-BSA (10 mM test compound) and 47% on AGE-BSA (20 mM test compound). `CC(=O)OCCOC(=O)c1ccc[n+](CC(=O)c2ccccc2)c1.[Br-]` [Compound 16, 1-(2-phenyl-2-oxoethyl)-3-(2-(acetoxy)ethyloxycarbonyl)pyridinium bromide]: the “% Breakage” value at AGE-BSA (10 mM test compound) is on record as 16%. Take `CCOC(=O)C[n+]1cccc(C(=O)OCCOC(=O)c2ccccc2)c1.[Br-]` [Compound 17, 1-(2-ethoxy-2-oxoethyl)-3-(2-(benzoyloxy)ethyloxycarbonyl)pyridinium bromide]: the “% Breakage” value on AGE-BSA (10 mM test compound) came out at 19%. Still for that read-out and setting: in the case of `CCOC(=O)C1CSCN1C(=O)C[n+]1cccc(C(=O)NNS(C)(=O)=O)c1.[Cl-]` (stereo not drawn) [Compound 61, 1-(2-(4-carboethoxy-thiazolidin-3-yl)-2-oxoethyl)-3-(methanesulfonyl hydrazinocarbonyl)pyridinium chloride] it was 25.06%; in that of `COCCNC(=O)c1cc(Br)c[n+](CC(=O)c2cccs2)c1.[Cl-]` [Compound 47, 1-(2-thien-2′-yl-2-oxoethyl)-3-((2-methoxyethyl)aminocarbonyl)-5-bromo pyridinium chloride], 32.38%. On to `O=C(C[n+]1cccc(C(=O)NCCO)c1)Nc1ccccc1.[Cl-]` [Compound 95, 1-(2-Phenylamino-2-oxoethyl)-3-((2-hydroxyethyl)aminocarbonyl)-pyridinium chloride], for which the “% Breakage” value at AGE-BSA (20 mM test compound) was determined as 48%. Turning to `NC(=O)c1ccc[n+](CC(=O)c2cccs2)c1.[Br-]` [Compound 85, 3-Carbonylamino-1-(2-thien-2′-yl-2-oxoethyl)-pyridinium bromide], the “% Breakage” value on AGE-BSA (10 mM test compound) amounted to 3%. The same measure, in the same setting: to `O=C(NNC(=O)c1ccc[n+](CC(=O)c2ccc(Cl)s2)c1)c1ccc[n+](CC(=O)c2ccc(Cl)s2)c1.[Cl-].[Cl-]` [Compound 62, N,N′-bis[3-carbonyl-1-(2-(5-chlorothien-2-yl)-2-oxoethyl)pyridinium]hydrazine dichloride] belongs 78.41%.
